Source: article PMC6330446, “An integrated characterization of contractile, electrophysiological, and structural cardiotoxicity of Sophora tonkinensis Gapnep. in human pluripotent stem cell-derived cardiomyocytes” (Stem Cell Research & Therapy, 2019)
Entries after “also recorded” stand apart in the source; their conditions may differ. Like-named read-outs stand apart in the source and are kept apart here.

Assays:
hiPSC-CMs [1] = assay: SOD, GSH and MDA assay; format: cell-based, human; details: 2, 10, 50 μM
Method: (§1) After plating for about 3 days, CMs matured and began to beat. At this time, different compounds were added, and experiments were performed 24 h after treatment. The experiments were grouped as follows: control group (normal medium); matrine, oxymatrine, sophocarpine, and cytisine treatment (2, 10, 50 μM) groups; and aconitine treatment (1 μM) group. The doses of toxicity studies above were determined by the effective therapeutic doses reported and included or exceeded the therapeutic dose.
Cell treatment was the same as discussed in the “Compound treatment” section. After reaching the predetermined time, the cells were washed with 4 °C physiological saline and later were added into the lysate and appropriately pipetted. After centrifuging at 1.2 × 10^4 rpm for 5 min, the supernatant was obtained to measure the levels of SOD, GSH and MDA using a commercially available kit (Beyotime Biotechnology, Shanghai, China) following the manufacturer's instructions. Data were presented as the mean ± SEM, n ≥ 3.

hiPSC-CMs [2] = tested on: hiPSC-CMs
Method: as §1
Cell treatment method was the same as above. After reaching the predetermined time, 120 μl of the supernatant of each well was taken for measuring LDH leakage using a commercially available kit (Beyotime Biotechnology, Shanghai, China) following the manufacturer’s instructions. Data were presented as the mean ± SEM, n ≥ 3.

hiPSC-CMs [3] = details: for Cell viability (in words): alkaloids 2, 10, 50 μM, aconitine 1 μM
Method: as §1
CMs were incubated in 10% CCK-8 (Dojindo, Kumamoto, Japan) that was diluted in normal culture medium at 37 °C until a visual color conversion occurred. The absorbance of each well was measured using a microplate reader (Spectrafluor, TECAN, Sunrise, Austria) at 450 nm. Three individual experiments were performed. All samples were operated in duplicate.
A 96-well plate was used to seed hiPSC-CMs at a concentration of 5 × 10^4 cells per well. The cultured cells were treated with different concentrations of compounds and were incubated for another 48 h. CMs were digested with trypsin, and a small amount of cell suspension was added into the same amount of trypan blue solution. Countstar Automated Cell Counter IC1000 (Elite Life Sciences, Shanghai, China) was used to count the number of total and living cells. Data were presented as the mean ± SEM, n ≥ 3.

hiPSC-CMs [4] = assay: Cardio-NLCS impedance and extracellular field potential (EFP) recording; format: cell-based, human; details: for Amplitude (EFP): lowest concentration that demonstrated a significant change compare with the control group / Beat rate: lowest concentration that demonstrated a significant change compare with the control group / FPD: lowest concentration that demonstrated a significant change compare with the control group / Amplitude (IMP): lowest concentration that demonstrated a significant change compare with the control group / Base impedance: lowest concentration that demonstrated a significant change compare with the control group: 2, 10, 50 μM tested, recorded over 24 h; for Base impedance vs the control group (in words) / Beat rate vs the control group (in words) / Contractile amplitude (amplitude of IMP) vs the control group (in words) / FPD value vs the control group (in words) / Potential amplitude (amplitude of EFP) vs the control group (in words): 2, 10, 50 μM, 24 h recording
Method: as §1
Cardio-NLCS (Optoprobe Science LTD, Canada) is a turn-key system for efficient impedance and extracellular field potential (EFP) measurements of cell monolayers or tissue preparations. NSP-96 dedicated for Cardio-NLCS should be coated with BD and the wells should not run dry before adding the cell suspension. After seeding, the medium was not exchanged for 12 h. Subsequently, the medium exchange was completed once a day for 2–3 days and every 2 days thereafter. Adding compounds required a complete solution exchange to allow for exact dosing. After the cells were allowed to re-equilibrate for 2–3 h, the 2× concentrated compounds were added by exchanging half of the medium per well. In this experiment, several indexes (base impedance, amplitude, beat rate, and FPD) were recorded at the start of the experiment (control), then every 5 min for 4 h after compound application and every 30 min the same as cell growth period detection, lasting a minimum of 24 h. In this way, both time and concentration-dependent effects could be monitored. Impedance and EFP data analyses were taken every 4 h after compound administrations.

GCaMP hESC-CMs = format: cell-based, human
Method: The hESC-CMs in this experiment can express the GCaMP reporter gene by gene editing, and green fluorescence marker can be observed by a fluorescence microscope. The fluorescence intensity is proportional to Ca^2+ concentration. The CMs were seeded into 96-well plates at 5000/well and were administered the same as above. The fluorescence intensities of hESC-CMs were monitored using an IncuCyte™ S3 ZOOM cell imaging system (Essen BioScience, Ann Arbor, MI). Data were presented as the mean ± SEM, n ≥ 3.

hiPSC-CMs [5] = format: cell-based, human
Method: Cells were incubated in a maintaining medium containing 10 μM DCFH-DA (Beyotime Biotechnology, Shanghai, China) for 30 min at 37 °C in the dark. The measurement of ROS was performed with IncuCyte™ S3 ZOOM cell imaging system (Essen BioScience, Ann Arbor, MI). TissueQuest 6.0 was used for the quantitative analysis of ROS formation. Data were presented as the mean ± SEM, n ≥ 3.

[6] = hiPSC-CMs, 2, 10, 50 μM tested, 24 h
[7] = at the lowest effective concentration

## O=C1CCC[C@@H]2[C@H]3CCC[N+]4([O-])CCC[C@@H](CN12)[C@@H]34 (stereo partly shown) [Oxymatrine, oxymatrine]
hiPSC-CMs [1]
  GSH activity (in words): sharply lowered
  MDA level (in words): rose
  SOD activity (in words): sharply lowered
hiPSC-CMs [2]; hiPSC-CMs, 2, 10, 50 μM tested
  LDH leakage: lowest concentration that demonstrated a significant change compare with the control group: 2 µM
hiPSC-CMs [3]; [6]
  Cell viability: lowest concentration that demonstrated a significant change compare with the control group: 10 µM
hiPSC-CMs [3]; hiPSC-CMs, 24 h
  Cell viability (in words): decreased dose-dependently
hiPSC-CMs [4]
  Amplitude (EFP): lowest concentration that demonstrated a significant change compare with the control group: 10 µM
  Beat rate: lowest concentration that demonstrated a significant change compare with the control group: 10 µM
  FPD: lowest concentration that demonstrated a significant change compare with the control group: No effect
  Base impedance vs the control group (in words): no change, except 10 μM oxymatrine treatment
  Beat rate vs the control group (in words): slightly lower; also recorded: large fluctuation
  Contractile amplitude (amplitude of IMP) vs the control group (in words): upward dose-dependent trend
  FPD value vs the control group (in words): remained stable in all groups
  Potential amplitude (amplitude of EFP) vs the control group (in words): upward dose-dependent trend; also recorded: large fluctuation
hiPSC-CMs [4]; [7]
  Amplitude (EFP): initial time of significant change compare with the control group: 12 h
  Amplitude (IMP): initial time of significant change compare with the control group: 4 h
  Beat rate: initial time of significant change compare with the control group: 4 h

## O=C1C=CC[C@@H]2[C@H]3CCCN4CCC[C@@H](CN12)[C@@H]34 [Sophocarpine, sophocarpine]
hiPSC-CMs [1]
  GSH activity (in words): sharply lowered
  MDA level (in words): rose
  SOD activity (in words): sharply lowered
hiPSC-CMs [2]; hiPSC-CMs, 2, 10, 50 μM tested
  LDH leakage: lowest concentration that demonstrated a significant change compare with the control group: 2 µM
GCaMP hESC-CMs; hESC-CMs, 2, 10, 50 μM tested
  [Ca^2+]i: lowest concentration that demonstrated a significant change compare with the control group: 50 µM
hiPSC-CMs [5]; hiPSC-CMs, 2, 10, 50 μM tested
  ROS level: lowest concentration that demonstrated a significant change compare with the control group: 10 µM
hiPSC-CMs [3]; [6]
  Cell viability: lowest concentration that demonstrated a significant change compare with the control group: 10 µM
hiPSC-CMs [3]; hiPSC-CMs, 24 h
  Cell viability (in words): decreased dose-dependently
hiPSC-CMs [4]; 50 μM
  FPD after high-dose administration (in words): immediately increased in a jump
hiPSC-CMs [4]
  Amplitude (EFP): lowest concentration that demonstrated a significant change compare with the control group: 50 µM
  Amplitude (IMP): lowest concentration that demonstrated a significant change compare with the control group: 50 µM
  Base impedance: lowest concentration that demonstrated a significant change compare with the control group: 50 µM
  Beat rate: lowest concentration that demonstrated a significant change compare with the control group: 50 µM
  FPD: lowest concentration that demonstrated a significant change compare with the control group: 50 µM
  Base impedance vs the control group (in words): no change
  Contractile amplitude (amplitude of IMP) vs the control group (in words): upward dose-dependent trend
  FPD value vs the control group (in words): large differences in the first 12 h and remained stable after 15 h of treatment
  Potential amplitude (amplitude of EFP) vs the control group (in words): no change
hiPSC-CMs [4]; [7]
  Amplitude (EFP): initial time of significant change compare with the control group: 16 h
  Base impedance: initial time of significant change compare with the control group: 8 h
  Beat rate: initial time of significant change compare with the control group: 4 h
  FPD: period of time of significant change compare with the control group: 0 to 12 h

## O=C1CCC[C@@H]2[C@H]3CCCN4CCC[C@@H](CN12)[C@@H]34 [Matrine, matrine]
hiPSC-CMs [1]
  GSH activity (in words): sharply lowered
  MDA level (in words): rose
  SOD activity (in words): sharply lowered
hiPSC-CMs [2]; hiPSC-CMs, 2, 10, 50 μM tested
  LDH leakage: lowest concentration that demonstrated a significant change compare with the control group: 2 µM
GCaMP hESC-CMs; GCaMP hESC-CMs, high dose of alkaloids (50 μM), aconitine 1 μM
  Fluorescence intensity of calcium, [Ca^2+]i (in words): increased significantly
GCaMP hESC-CMs; hESC-CMs, 2, 10, 50 μM tested
  [Ca^2+]i: lowest concentration that demonstrated a significant change compare with the control group: 50 µM
hiPSC-CMs [5]; hiPSC-CMs, 2, 10, 50 μM tested
  ROS level: lowest concentration that demonstrated a significant change compare with the control group: 50 µM
hiPSC-CMs [5]; hiPSC-CMs, high dose of alkaloids (50 μM), aconitine 1 μM
  ROS fluorescence / ROS production (in words): induced ROS production in excess
hiPSC-CMs [3]; hiPSC-CMs, 24 h
  Cell viability (in words): decreased dose-dependently
hiPSC-CMs [4]
  Amplitude (EFP): lowest concentration that demonstrated a significant change compare with the control group: 50 µM
  Amplitude (IMP): lowest concentration that demonstrated a significant change compare with the control group: 10 µM
  Base impedance: lowest concentration that demonstrated a significant change compare with the control group: 10 µM
  Beat rate: lowest concentration that demonstrated a significant change compare with the control group: 2 µM
  FPD: lowest concentration that demonstrated a significant change compare with the control group: 50 µM
  Base impedance vs the control group (in words): slightly lowered
  Beat rate vs the control group (in words): slightly lowered
  Contractile amplitude (amplitude of IMP) vs the control group (in words): upward trend
  FPD value vs the control group (in words): rose in the first half of matrine treatment
  Potential amplitude (amplitude of EFP) vs the control group (in words): upward trend
hiPSC-CMs [4]; [7]
  Amplitude (EFP): initial time of significant change compare with the control group: 20 h
  Amplitude (IMP): initial time of significant change compare with the control group: 4 h
  Base impedance: initial time of significant change compare with the control group: 16 h
hiPSC-CMs [4]; higher concentrations 10, 50 μM
  Beat rate in comparison with the low-dose group (in words): an increase in beat rate can be detected
hiPSC-CMs [4]; low, therapeutically relevant concentration 2 μM
  Beat rate (in words): a decrease in the beat rate can be detected

## O=c1cccc2n1C[C@@H]1CNC[C@H]2C1 [Cytisine, cytisine]
hiPSC-CMs [1]
  GSH activity (in words): sharply lowered
  MDA level (in words): rose
  SOD activity (in words): sharply lowered
hiPSC-CMs [2]; human
  LDH leakage: lowest concentration that demonstrated a significant change compare with the control group: 2 µM
GCaMP hESC-CMs; human
  [Ca^2+]i: lowest concentration that demonstrated a significant change compare with the control group: 50 µM
hiPSC-CMs [5]; human
  ROS level: lowest concentration that demonstrated a significant change compare with the control group: 50 µM
hiPSC-CMs [3]; hiPSC-CMs, 24 h
  Cell viability (in words): decreased dose-dependently
hiPSC-CMs [3]; human
  Cell viability: lowest concentration that demonstrated a significant change compare with the control group: 50 µM
hiPSC-CMs [4]
  Amplitude (EFP): lowest concentration that demonstrated a significant change compare with the control group: 50 µM
  Amplitude (IMP): lowest concentration that demonstrated a significant change compare with the control group: 10 µM
  Base impedance: lowest concentration that demonstrated a significant change compare with the control group: 50 µM
  Beat rate: lowest concentration that demonstrated a significant change compare with the control group: 10 µM
  FPD: lowest concentration that demonstrated a significant change compare with the control group: No effect
  Base impedance vs the control group (in words): no change except 50 μM cytisine treatment
  Contractile amplitude (amplitude of IMP) vs the control group (in words): upward trend
  FPD value vs the control group (in words): no significant effect
  Potential amplitude (amplitude of EFP) vs the control group (in words): upward trend
hiPSC-CMs [4]; listed as cytisine
  Beat rate vs the control group (in words): slightly lowered
  FPD value vs the control group (in words): remained stable in all groups
hiPSC-CMs [4]; [7]
  Amplitude (EFP): initial time of significant change compare with the control group: 16 h
  Amplitude (IMP): initial time of significant change compare with the control group: 4 h
  Base impedance: initial time of significant change compare with the control group: 12 h
